Values joined by “and” are separate entries in the source; they are usually repeats but may differ in a detail not shown here. Equal values may be shown once.
Test: molar heat capacity at constant pressure
Conditions: 101.33 kPa, Crystal, Small (less than 1 g) adiabatic calorimetry

O.O.O.O.O.O=S(=O)([O-])[O-].[Cu+2] [copper(II) sulfate pentahydrate]
Conditions	molar heat capacity at constant pressure
195.86 K	210.72 J/K/mol
196.02 K	208.8 J/K/mol
196.2 K	210.85 J/K/mol
196.62 K	212.01 J/K/mol
196.78 K	210.59 J/K/mol
196.97 K	211.56 J/K/mol
197.34 K	208.77 J/K/mol
197.52 K	212.45 J/K/mol
197.54 K	211.37 J/K/mol
197.92 K	209.01 J/K/mol
198.12 K	212.62 J/K/mol
198.28 K	211.94 J/K/mol
198.86 K	213.01 J/K/mol
199.03 K	212.84 J/K/mol
199.23 K	213.44 J/K/mol
199.77 K	213.38 J/K/mol
199.89 K	214.1 J/K/mol
200 K	210.9 J/K/mol
200.02 K	210.29 J/K/mol
200.18 K	214.5 J/K/mol
200.35 K	215.02 J/K/mol
200.44 K	211.49 J/K/mol
200.5 K	214.14 J/K/mol
201.23 K	214.77 J/K/mol
201.49 K	215.23 J/K/mol
201.51 K	215.2 J/K/mol
201.96 K	215.31 J/K/mol
202.12 K	212.11 J/K/mol
202.61 K	217.02 J/K/mol
202.68 K	216.55 J/K/mol
202.83 K	216.31 J/K/mol
203.14 K	217.49 J/K/mol
203.42 K	216.87 J/K/mol
203.52 K	214.16 J/K/mol
203.74 K	217.35 J/K/mol
204.14 K	217.62 J/K/mol
204.2 K	218.19 J/K/mol
204.22 K	214.4 J/K/mol
204.87 K	218.11 J/K/mol and 218.14 J/K/mol
205.53 K	218.8 J/K/mol
205.59 K	218.93 J/K/mol
205.99 K	219.33 J/K/mol
206.31 K	219.39 J/K/mol
206.33 K	215.55 J/K/mol
206.4 K	220.52 J/K/mol
206.59 K	216.64 J/K/mol
206.85 K	220.61 J/K/mol
207.02 K	220.58 J/K/mol
207.11 K	220.48 J/K/mol
207.81 K	220.88 J/K/mol
208.18 K	221.52 J/K/mol
208.23 K	222.38 J/K/mol
208.45 K	218.01 J/K/mol
208.52 K	222.44 J/K/mol
209.24 K	222.92 J/K/mol
209.37 K	222.88 J/K/mol
209.5 K	223.33 J/K/mol
209.64 K	219.18 J/K/mol
209.68 K	223.6 J/K/mol
209.96 K	223.05 J/K/mol
210 K	219.4 J/K/mol
210.49 K	223.26 J/K/mol
210.58 K	219.18 J/K/mol
210.67 K	223.74 J/K/mol
210.83 K	223.72 J/K/mol
211.38 K	224.39 J/K/mol
211.61 K	224.89 J/K/mol
212.1 K	224.82 J/K/mol
212.14 K	225.35 J/K/mol
212.68 K	221.85 J/K/mol
212.7 K	220.97 J/K/mol
212.75 K	225.67 J/K/mol
212.81 K	225.63 J/K/mol
212.95 K	226.54 J/K/mol
213.47 K	226.67 J/K/mol
213.52 K	226.64 J/K/mol
213.88 K	226.4 J/K/mol
214.25 K	227.02 J/K/mol
214.8 K	227.75 J/K/mol
214.83 K	222.9 J/K/mol
214.96 K	227.58 J/K/mol
215 K	227.95 J/K/mol
215.67 K	228.21 J/K/mol
215.69 K	224.43 J/K/mol
216.13 K	230.23 J/K/mol
216.19 K	228.74 J/K/mol
216.23 K	229.64 J/K/mol
216.38 K	229.09 J/K/mol
216.96 K	224.83 J/K/mol
217.1 K	229.55 J/K/mol
217.31 K	230.09 J/K/mol
217.46 K	230.34 J/K/mol
217.81 K	229.9 J/K/mol
218.45 K	231.22 J/K/mol
218.51 K	230.59 J/K/mol
218.69 K	227.07 J/K/mol
218.79 K	231.49 J/K/mol
219.1 K	226.58 J/K/mol
219.27 K	231.87 J/K/mol
219.52 K	232.65 J/K/mol
219.6 K	231.9 J/K/mol
219.98 K	232.07 J/K/mol
220 K	228 J/K/mol
220.12 K	232.93 J/K/mol
220.68 K	232.63 J/K/mol
220.72 K	233.3 J/K/mol
221.23 K	229.07 J/K/mol
221.39 K	233.36 J/K/mol
221.44 K	233.44 J/K/mol
221.67 K	229.65 J/K/mol
221.86 K	234.58 J/K/mol
222.09 K	234.58 J/K/mol
222.76 K	235.19 J/K/mol
222.81 K	235.64 J/K/mol and 235.01 J/K/mol
223 K	235.73 J/K/mol
223.42 K	230.15 J/K/mol
223.51 K	235.25 J/K/mol
224.08 K	236.48 J/K/mol
224.14 K	236.55 J/K/mol
224.22 K	235.98 J/K/mol
224.64 K	232.13 J/K/mol
224.92 K	236.68 J/K/mol
225.28 K	237.03 J/K/mol
225.45 K	237.85 J/K/mol
225.57 K	231.89 J/K/mol
225.62 K	237.74 J/K/mol
226.1 K	239.21 J/K/mol
226.33 K	238.26 J/K/mol
226.41 K	238.72 J/K/mol
226.77 K	238.57 J/K/mol
227.03 K	238.58 J/K/mol
227.55 K	239.68 J/K/mol
227.61 K	234.56 J/K/mol
227.72 K	233.69 J/K/mol
227.73 K	239.34 J/K/mol
228.08 K	239.61 J/K/mol
228.43 K	239.99 J/K/mol
228.69 K	240.1 J/K/mol
229.13 K	241.13 J/K/mol
229.38 K	242.74 J/K/mol and 240.91 J/K/mol
229.82 K	241.69 J/K/mol
229.84 K	241.43 J/K/mol
229.87 K	235.54 J/K/mol
230 K	236.5 J/K/mol
230.54 K	237.24 J/K/mol
230.59 K	242.26 J/K/mol
230.69 K	242.63 J/K/mol
230.95 K	243.17 J/K/mol
231.28 K	242.67 J/K/mol
231.97 K	243.3 J/K/mol
232 K	244.22 J/K/mol
232.02 K	238.28 J/K/mol
232.09 K	244.43 J/K/mol
232.67 K	243.85 J/K/mol
232.75 K	246.09 J/K/mol
233.23 K	245.48 J/K/mol
233.31 K	244.86 J/K/mol
233.36 K	244.3 J/K/mol
233.45 K	239.84 J/K/mol
234.05 K	245.57 J/K/mol
234.17 K	240.04 J/K/mol
234.4 K	246.29 J/K/mol
234.6 K	245.97 J/K/mol
234.74 K	245.84 J/K/mol
235.43 K	246.76 J/K/mol
235.54 K	247.78 J/K/mol
235.9 K	247.43 J/K/mol
236.03 K	249.81 J/K/mol
236.12 K	248.09 J/K/mol
236.33 K	241.79 J/K/mol
236.34 K	242 J/K/mol
236.67 K	248.93 J/K/mol
236.8 K	248.39 J/K/mol
237.18 K	249.45 J/K/mol
237.49 K	248.39 J/K/mol
237.8 K	249.96 J/K/mol
238.17 K	249.66 J/K/mol
238.48 K	250.93 J/K/mol
238.49 K	242.57 J/K/mol
238.86 K	250.68 J/K/mol
238.93 K	250.66 J/K/mol
239.22 K	244.58 J/K/mol
239.28 K	253.63 J/K/mol
239.54 K	251.41 J/K/mol
239.78 K	251.78 J/K/mol
240 K	244.6 J/K/mol
240.05 K	252.46 J/K/mol
240.22 K	252.08 J/K/mol
240.64 K	245.25 J/K/mol
240.9 K	252.78 J/K/mol
241.06 K	253.96 J/K/mol
241.18 K	254.16 J/K/mol
241.62 K	254.68 J/K/mol
242.1 K	246.15 J/K/mol
242.31 K	255.3 J/K/mol and 255.28 J/K/mol
242.34 K	255.3 J/K/mol
242.5 K	257.5 J/K/mol
242.81 K	246.88 J/K/mol
243 K	255.25 J/K/mol
243.44 K	256.35 J/K/mol
243.63 K	256.1 J/K/mol
243.67 K	255.75 J/K/mol
244.35 K	256.2 J/K/mol
244.56 K	257.83 J/K/mol
244.9 K	258.25 J/K/mol
244.96 K	248.55 J/K/mol
244.99 K	248.48 J/K/mol
245.02 K	258.05 J/K/mol
245.68 K	259.42 J/K/mol
245.7 K	261.47 J/K/mol and 258.65 J/K/mol
246.21 K	260.25 J/K/mol
246.37 K	259.35 J/K/mol
246.81 K	261 J/K/mol
247.04 K	259.87 J/K/mol
247.17 K	250.06 J/K/mol
247.49 K	261.87 J/K/mol
247.71 K	260.55 J/K/mol
247.81 K	250.77 J/K/mol
247.93 K	262.47 J/K/mol
248.38 K	262.79 J/K/mol
248.76 K	263.79 J/K/mol
248.87 K	265.57 J/K/mol
249.05 K	263.94 J/K/mol and 263.89 J/K/mol
249.35 K	251.83 J/K/mol
249.73 K	264.77 J/K/mol
250 K	252.3 J/K/mol
250.03 K	265.72 J/K/mol
250.16 K	265.92 J/K/mol
250.4 K	265.12 J/K/mol
250.65 K	253.29 J/K/mol
250.81 K	264.67 J/K/mol
251.06 K	267.06 J/K/mol
251.11 K	266.37 J/K/mol
251.28 K	267.34 J/K/mol
251.4 K	267.19 J/K/mol
251.54 K	253.61 J/K/mol
251.7 K	267.09 J/K/mol
251.73 K	268.24 J/K/mol
252 K	268.41 J/K/mol
252.02 K	268.79 J/K/mol
252.3 K	268.34 J/K/mol
252.43 K	268.74 J/K/mol
252.44 K	269.16 J/K/mol
252.6 K	268.74 J/K/mol
252.91 K	269.29 J/K/mol
253.1 K	269.76 J/K/mol
253.21 K	269.44 J/K/mol
253.49 K	254.99 J/K/mol
253.51 K	272.53 J/K/mol
253.55 K	268.86 J/K/mol
253.73 K	255.6 J/K/mol
253.77 K	270.41 J/K/mol
253.82 K	269.46 J/K/mol
254.13 K	270.51 J/K/mol
254.44 K	270.78 J/K/mol
254.48 K	271.06 J/K/mol
254.67 K	267.86 J/K/mol
254.79 K	270.11 J/K/mol
255.09 K	270.86 J/K/mol
255.11 K	269.99 J/K/mol
255.15 K	266.89 J/K/mol
255.4 K	268.06 J/K/mol
255.71 K	269.24 J/K/mol
255.78 K	268.39 J/K/mol
255.79 K	265.69 J/K/mol
255.93 K	257.4 J/K/mol
256.02 K	270.78 J/K/mol
256.31 K	256.81 J/K/mol
256.34 K	267.49 J/K/mol
256.46 K	267.76 J/K/mol
256.65 K	267.31 J/K/mol
256.92 K	265.79 J/K/mol
256.96 K	267.59 J/K/mol
257.13 K	266.91 J/K/mol
257.27 K	266.51 J/K/mol
257.59 K	266.84 J/K/mol
257.81 K	266.84 J/K/mol
257.9 K	267.19 J/K/mol
258.04 K	266.69 J/K/mol
258.2 K	258.77 J/K/mol
258.23 K	266.29 J/K/mol
258.28 K	269.36 J/K/mol
258.49 K	266.59 J/K/mol
258.54 K	266.91 J/K/mol
258.86 K	266.27 J/K/mol
259.1 K	259.75 J/K/mol
259.16 K	267.91 J/K/mol and 267.81 J/K/mol
259.17 K	266.56 J/K/mol
259.54 K	267.76 J/K/mol
259.84 K	267.96 J/K/mol
259.85 K	268.01 J/K/mol
260 K	260.1 J/K/mol
260.17 K	268.06 J/K/mol
260.28 K	269.14 J/K/mol
260.42 K	260.6 J/K/mol
260.48 K	269.74 J/K/mol
260.5 K	268.36 J/K/mol
260.81 K	268.66 J/K/mol
261.13 K	268.81 J/K/mol
261.17 K	270.24 J/K/mol
261.39 K	272.21 J/K/mol
261.41 K	270.41 J/K/mol
261.45 K	269.31 J/K/mol
261.76 K	270.09 J/K/mol
261.85 K	271.36 J/K/mol
261.91 K	260.82 J/K/mol
262.08 K	270.58 J/K/mol
262.39 K	270.73 J/K/mol
262.53 K	272.18 J/K/mol and 271.23 J/K/mol
262.65 K	262.42 J/K/mol
262.71 K	270.93 J/K/mol
263.03 K	271.38 J/K/mol
263.24 K	272.33 J/K/mol
263.34 K	272.38 J/K/mol
263.65 K	274.08 J/K/mol
263.66 K	273.13 J/K/mol
